The values that follow come from ChEMBL document CHEMBL3045173, “Synthesis, antibacterial, and antitubercular studies of some novel isatin derivatives” (2012).

Common to all, as to assay type: functional
In test [1] the test system is Mycobacterium tuberculosis. In words: Antimicrobial activity against Mycobacterium tuberculosis H37Rv ATCC 27294 after 7 days by MABA. The note with it: for MIC90: Mycobacterium tuberculosis, H37Rv ATCC 27294, 168 h.
Test [2] has as its system Bacillus cereus. The test is described as follows: Antimicrobial activity against Bacillus cereus ATCC 11778 after 24 hr by agar streak dilution method. The note with it: ATCC 11778, 24 h.
Test [3] deals with Micrococcus luteus. The test is described as follows: Antimicrobial activity against Micrococcus luteus ATCC 4698 after 24 hr by agar streak dilution method. Conditions: ATCC 4698, 24 h.
Test [4] concerns Staphylococcus epidermidis. The test is described as follows: Antimicrobial activity against Staphylococcus epidermidis ATCC 155 after 24 hr by agar streak dilution method. Conditions: ATCC 155, 24 h.
Test [5] concerns Staphylococcus aureus. The test is described as follows: Antimicrobial activity against Staphylococcus aureus ATCC 9144 after 24 hr by agar streak dilution method. Conditions: ATCC 9144, 24 h.
For test [6], the system named is Bacillus cereus. In words: Antimicrobial activity against Bacillus cereus ATCC 11778 at 100 ug/ml after 24 hr by paper disk diffusion method. The note with it: ATCC 11778, 24 h, read-out: IZ.
Test [7] relates to Micrococcus luteus. The test is described as follows: Antimicrobial activity against Micrococcus luteus ATCC 4698 at 100 ug/ml after 24 hr by paper disk diffusion method. Conditions: ATCC 4698, 24 h, read-out: IZ.
Test [8] relates to Staphylococcus epidermidis. The test is described as follows: Antimicrobial activity against Staphylococcus epidermidis ATCC 155 at 100 ug/ml after 24 hr by paper disk diffusion method. The note with it: ATCC 155, 24 h, read-out: IZ.
In test [9] the test system is Staphylococcus aureus. The test is described as follows: Antimicrobial activity against Staphylococcus aureus ATCC 9144 at 100 ug/ml after 24 hr by paper disk diffusion method. Conditions: ATCC 9144, 24 h, read-out: IZ.

In brackets after ≈: the same amount, converted by molar mass.

With `O=[N+]([O-])c1cn2c(n1)OC[C@@H](OCc1ccc(OC(F)(F)F)cc1)C2` [PRETOMANID], in test [1], the “inhibition (INH)” value stood at 100% and the MIC90 was 0.25 µM (≈ 0.0898 µg/mL).
For `CN(C)c1ccc(/C=N/c2ccc(/N=C3\C(=O)N(Cc4ccccc4)c4ccccc43)cc2)cc1`, the “inhibition (INH)” value in test [1] is on record as 79%. Besides, the MIC in test [2] came to 20.7 µg/mL (≈ 45.1 µM); in [3], 19.7 µg/mL (≈ 43 µM); in test [4] it was 24 µg/mL (≈ 52.3 µM); in test [5], 22.8 µg/mL (≈ 49.7 µM). For the same compound, the zone of inhibition at 100 µg/mL in test [6] is 15 mm; in [7] it was 18 mm; in test [8] it was 14 mm; in [9] it was 17 mm.
Turning to `O=C1/C(=N\c2ccc(/N=C/c3ccc(Br)cc3)cc2)c2ccccc2N1Cc1ccccc1`, the “inhibition (INH)” value in test [1] came to 96%. The compound further showed an MIC90 in test [1] of 4.26 µM (≈ 2.11 µg/mL). In addition, the minimal inhibitory concentration (MIC) in test [2] was determined as 15.3 µg/mL (≈ 30.9 µM); in [3] it was 16.3 µg/mL (≈ 33 µM); in [4], 21.2 µg/mL (≈ 42.9 µM); in test [5] it was 19.3 µg/mL (≈ 39 µM). The zone of inhibition at 100 µg/mL in test [6] came out at 17 mm; in [7], 20 mm; in test [8], 18 mm; in [9], 19 mm.
On to `COc1cc(/C=N/c2ccc(/N=C3\C(=O)N(Cc4ccccc4)c4ccccc43)cc2)ccc1O`, for which, in test [1], the “inhibition (INH)” value is recorded as 80%. The minimal inhibitory concentration (MIC) was 18.6 µg/mL (≈ 40.3 µM) in test [2], 18.7 µg/mL (≈ 40.5 µM) in test [3], 13.8 µg/mL (≈ 29.9 µM) in test [4] and 18.2 µg/mL (≈ 39.4 µM) in test [5]. In addition, the zone of inhibition at 100 µg/mL stood at 17 mm in test [6], 19 mm in test [7], 22 mm in [8] and 19 mm in test [9].
Take `NNC(=O)c1ccncc1` [ISONIAZID]: in test [1], the “inhibition (INH)” value is on record as 100% and the MIC90 stood at 0.74 µM (≈ 0.101 µg/mL).
Consider `COc1ccc(/C=N/c2ccc(/N=C3\C(=O)N(Cc4ccccc4)c4ccccc43)cc2)cc1`, for which the “inhibition (INH)” value in [1] is 80%. For the same compound, the MIC came out at 17.1 µg/mL (≈ 38.4 µM) in test [2], 12.4 µg/mL (≈ 27.8 µM) in test [3], 14.8 µg/mL (≈ 33.2 µM) in [4] and 13.6 µg/mL (≈ 30.5 µM) in test [5]. The zone of inhibition at 100 µg/mL came out at 17 mm in test [6], 20 mm in test [7], 23 mm in test [8] and 19 mm in test [9].
For the compound `O=C(O)c1cn(C2CC2)c2cc(N3CCNCC3)c(F)cc2c1=O` [CIPROFLOXACIN], the MIC in [2] amounted to 0.3 µg/mL (≈ 0.905 µM); in [3] it was 0.1 µg/mL (≈ 0.302 µM); in [4], 0.35 µg/mL (≈ 1.06 µM); in test [5] it was 0.2 µg/mL (≈ 0.604 µM). The zone of inhibition at 100 µg/mL in test [6] is 25 mm; in test [7], 30 mm; in [8], 29 mm; in test [9], 25 mm.
With `CO[C@H]1/C=C/O[C@@]2(C)Oc3c(C)c(O)c4c(O)c(c(/C=N/N5CCN(C)CC5)c(O)c4c3C2=O)NC(=O)/C(C)=C\C=C\[C@H](C)[C@H](O)[C@@H](C)[C@@H](O)[C@@H](C)[C@H](OC(C)=O)[C@@H]1C` [RIFAMPIN], in test [1], the “inhibition (INH)” value worked out at 100% and the MIC90 stood at 0.06 µM (≈ 0.0494 µg/mL).
With `COc1c(N2C[C@@H]3CCCN[C@@H]3C2)c(F)cc2c(=O)c(C(=O)O)cn(C3CC3)c12` [MOXIFLOXACIN], in test [1], the “inhibition (INH)” value worked out at 100% and the MIC90 was determined as 0.25 µM (≈ 0.1 µg/mL).
Turning to `COc1ccc(/C=N/c2ccc(/N=C3\C(=O)N(Cc4ccccc4)c4ccccc43)cc2)cc1OC`, in test [1], the “inhibition (INH)” value was found to be 73%. For the same compound, the MIC stood at 21.2 µg/mL (≈ 44.6 µM) in test [2], 19.6 µg/mL (≈ 41.2 µM) in [3], 20.2 µg/mL (≈ 42.5 µM) in test [4] and 11.8 µg/mL (≈ 24.8 µM) in [5]. The zone of inhibition at 100 µg/mL in [6] came to 16 mm; in [7] it was 17 mm; in test [8], 18 mm; in test [9], 22 mm.
With `O=C1/C(=N\c2ccc(/N=C/c3ccccc3O)cc2)c2ccccc2N1Cc1ccccc1`, the “inhibition (INH)” value in test [1] is reported as 90%. Also, the MIC in [2] came out at 16.7 µg/mL (≈ 38.7 µM); in [3], 20.6 µg/mL (≈ 47.7 µM); in [4], 17.6 µg/mL (≈ 40.8 µM); in test [5], 13.2 µg/mL (≈ 30.6 µM). In addition, the zone of inhibition at 100 µg/mL in test [6] came to 18 mm; in test [7] it was 17 mm; in [8], 20 mm; in test [9] it was 20 mm.
With `O=C1/C(=N\c2ccc(/N=C/c3ccc([N+](=O)[O-])cc3)cc2)c2ccccc2N1Cc1ccccc1`, the “inhibition (INH)” value in [1] is given as 80%. Also, the MIC in test [2] was determined as 19.2 µg/mL (≈ 41.7 µM); in test [3], 27.8 µg/mL (≈ 60.4 µM); in test [4], 20.4 µg/mL (≈ 44.3 µM); in test [5] it was 25.2 µg/mL (≈ 54.7 µM). In addition, the zone of inhibition at 100 µg/mL in test [6] came out at 16 mm; in [7] it was 13 mm; in test [8], 19 mm; in [9], 15 mm.
Take `O=C1/C(=N\c2ccc(/N=C/c3ccc(Cl)cc3)cc2)c2ccccc2N1Cc1ccccc1`: in test [1], the “inhibition (INH)” value came to 90%. Also, the minimum inhibitory concentration (MIC) in [2] was found to be 12.1 µg/mL (≈ 26.9 µM); in test [3], 11.2 µg/mL (≈ 24.9 µM); in test [4], 9.8 µg/mL (≈ 21.8 µM); in test [5], 10.4 µg/mL (≈ 23.1 µM). Also, the zone of inhibition at 100 µg/mL in test [6] was determined as 19 mm; in [7] it was 23 mm; in test [8], 25 mm; in [9], 21 mm.
